Columns and labels:
[1] = compound: CCCCOc1c(C(=O)c2c(F)cc(C)cc2F)c[nH]c2nncc1-2
[2] = compound: CCNC(=O)c1noc(-c2cc(C(C)C)c(O)cc2O)c1-c1ccc(CN2CCOCC2)cc1 [Luminespib/NVP-AUY922]
[3] = compound: CN(C)C/C=C/C(=O)NC1=CC=C(C=C1)C(=O)NC2=CC=CC(=C2)NC3=NC=NC(=C3)C4=CNC5=CC=CC=C54 [THZ-P1-2]
[4] = compound: CN(C)C/C=C/C(=O)Nc1ccc(O[C@@H]2CCC[C@@H](Nc3ncc(Cl)c(-c4c[nH]c5ccccc45)n3)C2)cc1 [BSJ-01-175]
[5] = compound: CN1CCN(CCOc2cc(OC3CCOCC3)c3c(Nc4c(Cl)ccc5c4OCO5)ncnc3c2)CC1 [Saracatinib/AZD0530]
[6] = compound: Cc1cc(Nc2ncc(Cl)c(Nc3ccccc3S(=O)(=O)C(C)C)n2)c(OC(C)C)cc1C1CCNCC1 [Ceritinib/LDK378]
[7] = compound: C=CC(=O)Nc1ccc(C(=O)Nc2[nH]nc3c2CN(C(=O)N[C@H](CN(C)C)c2ccccc2)C3(C)C)cc1 [YKL-5-124]; assay: increase in dead-cell fraction, 72 h; higher = more death;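 note: breast cancer cell lines in 384-well plates, stained with Hoechst plus LIVE/DEAD far red dye and imaged, cells above an LDR intensity threshold counted dead, Hoechst-negative corpses included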
[8] = compound: CC(=O)c1c(C)c2cnc(Nc3ccc(N4CCN(CCOCCOCCOCCNC(=O)COc5cccc6c5C(=O)N(C5CCC(=O)NC5=O)C6=O)CC4)cn3)nc2n(C2CCCC2)c1=O [BSJ-03-123]; assay: as above
[9] = compound: CC(=O)c1c(C)c2cnc(Nc3ccc(N4CCNCC4)cn3)nc2n(C2CCCC2)c1=O; assay: as above
[10] = compound: CCN1CCN(Cc2ccc(Nc3ncc(F)c(-c4cc(F)c5nc(C)n(C(C)C)c5c4)n3)nc2)CC1; assay: as above
[11] = compound: CCOc1cc2ncc(C#N)c(Nc3ccc(OCc4ccccn4)c(Cl)c3)c2cc1NC(=O)/C=C/CN(C)C [Neratinib/HKI272]; assay: as above
[12] = compound: CCc1cnn2c(NCc3ccc[n+]([O-])c3)cc(N3CCCC[C@H]3CCO)nc12; assay: as above
[13] = compound: CN(C)C(=O)c1cc2cnc(Nc3ccc(N4CCNCC4)cn3)nc2n1C1CCCC1 [LEE011/Ribociclib]; assay: as above
[14] = compound: CN(C)C/C=C/C(=O)Nc1ccc(C(=O)N2CCC[C@@H](Nc3ncc(Cl)c(-c4c[nH]c5ccccc45)n3)C2)cc1 [THZ531]; assay: as above
[15] = compound: CN(C)C/C=C/C(=O)Nc1ccc(C(=O)Nc2cccc(Nc3ncc(Cl)c(-c4c[nH]c5ccccc45)n3)c2)cc1 [THZ1]; assay: as above
[16] = compound: CN1CC[C@H](c2c(O)cc(O)c3c(=O)cc(-c4ccccc4Cl)oc23)[C@H](O)C1 [Flavopiridol]; assay: as above
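Throughout, for GR50, 72 h: breast cancer and non-malignant breast epithelial cell lines, Deep Dye Drop or Dye Drop imaging, nine half-log doses, GR normalized to time-zero plates and DMSO-only controls.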

SKBR3
GR50, 72 h [1]: 0.0869 µM | GR50, 72 h [2]: 0.00228 µM | GR50, 72 h [3]: 4.25 µM | GR50, 72 h [4]: 0.00832 µM | GR50, 72 h [5]: 4.92 µM | GR50, 72 h [6]: 0.985 µM | increase in dead-cell fraction ([7]; 0.001 µM): 0.0064 | increase in dead-cell fraction ([7]; 0.003162 µM): 0.0231 | increase in dead-cell fraction ([7]; 0.01 µM): 0.0496 | increase in dead-cell fraction ([7]; 0.03162 µM): 0.0434 | increase in dead-cell fraction ([7]; 0.1 µM): 0.0537 | increase in dead-cell fraction ([7]; 0.3162 µM): 0.0626 | increase in dead-cell fraction ([7]; 1 µM): 0.0336 | increase in dead-cell fraction ([7]; 3.162 µM): 0.0844 | increase in dead-cell fraction ([7]; 10 µM): 0.316 | increase in dead-cell fraction ([8]; 0.001 µM): -0.001 | increase in dead-cell fraction ([8]; 0.003162 µM): 0.0008 | increase in dead-cell fraction ([8]; 0.01 µM): 0.0041 | increase in dead-cell fraction ([8]; 0.03162 µM): -0.0049 | increase in dead-cell fraction ([8]; 0.1 µM): 0.0076 | increase in dead-cell fraction ([8]; 0.3162 µM): -0.0004 | increase in dead-cell fraction ([8]; 1 µM): 0.0088 | increase in dead-cell fraction ([8]; 3.162 µM): 0.0136 | increase in dead-cell fraction ([8]; 10 µM): 0.15 | increase in dead-cell fraction ([9]; 0.0003162 µM): -0.0013 | increase in dead-cell fraction ([9]; 0.001 µM): 0.0036 | increase in dead-cell fraction ([9]; 0.003162 µM): 0.0075 | increase in dead-cell fraction ([9]; 0.01 µM): 0.015 | increase in dead-cell fraction ([9]; 0.03162 µM): 0.0198 | increase in dead-cell fraction ([9]; 0.1 µM): 0.0318 | increase in dead-cell fraction ([9]; 0.3162 µM): 0.0437 | increase in dead-cell fraction ([9]; 1 µM): 0.0364 | increase in dead-cell fraction ([9]; 3.162 µM): 0.0469 | increase in dead-cell fraction ([10]; 0.001 µM): 0.0059 | increase in dead-cell fraction ([10]; 0.003162 µM): 0.003 | increase in dead-cell fraction ([10]; 0.01 µM): 0.0233 | increase in dead-cell fraction ([10]; 0.03162 µM): 0.0346 | increase in dead-cell fraction ([10]; 0.1 µM): 0.0399 | increase in dead-cell fraction ([10]; 0.3162 µM): 0.0362 | increase in dead-cell fraction ([10]; 1 µM): 0.0582 | increase in dead-cell fraction ([10]; 3.162 µM): 0.0358 | increase in dead-cell fraction ([10]; 10 µM): 0.0879 | increase in dead-cell fraction ([11]; 0.0003162 µM): 0.0178 | increase in dead-cell fraction ([11]; 0.001 µM): 0.0381 | increase in dead-cell fraction ([11]; 0.003162 µM): 0.111 | increase in dead-cell fraction ([11]; 0.01 µM): 0.156 | increase in dead-cell fraction ([11]; 0.03162 µM): 0.222 | increase in dead-cell fraction ([11]; 0.1 µM): 0.24 | increase in dead-cell fraction ([11]; 0.3162 µM): 0.303 | increase in dead-cell fraction ([11]; 1 µM): 0.362 | increase in dead-cell fraction ([11]; 3.162 µM): 0.364 | increase in dead-cell fraction ([12]; 0.0001 µM): 0.0102 | increase in dead-cell fraction ([12]; 0.0003162 µM): 0.0115 | increase in dead-cell fraction ([12]; 0.001 µM): 0.0049 | increase in dead-cell fraction ([12]; 0.003162 µM): 0.011 | increase in dead-cell fraction ([12]; 0.01 µM): 0.303 | increase in dead-cell fraction ([12]; 0.03162 µM): 0.574 | increase in dead-cell fraction ([12]; 0.1 µM): 0.595 | increase in dead-cell fraction ([12]; 0.3162 µM): 0.612 | increase in dead-cell fraction ([12]; 1 µM): 0.583 | increase in dead-cell fraction ([13]; 0.001 µM): -0.0002 | increase in dead-cell fraction ([13]; 0.003162 µM): -0.0049 | increase in dead-cell fraction ([13]; 0.01 µM): 0.0112 | increase in dead-cell fraction ([13]; 0.03162 µM): 0.0071 | increase in dead-cell fraction ([13]; 0.1 µM): 0.0105 | increase in dead-cell fraction ([13]; 0.3162 µM): 0.0092 | increase in dead-cell fraction ([13]; 1 µM): 0.0206 | increase in dead-cell fraction ([13]; 3.162 µM): 0.0182 | increase in dead-cell fraction ([13]; 10 µM): 0.0119 | increase in dead-cell fraction ([14]; 0.0001 µM): 0.0012 | increase in dead-cell fraction ([14]; 0.0003162 µM): 0.0021 | increase in dead-cell fraction ([14]; 0.001 µM): 0.0015 | increase in dead-cell fraction ([14]; 0.003162 µM): -0.0089 | increase in dead-cell fraction ([14]; 0.01 µM): -0.0005 | increase in dead-cell fraction ([14]; 0.03162 µM): 0.053 | increase in dead-cell fraction ([14]; 0.1 µM): 0.155 | increase in dead-cell fraction ([14]; 0.3162 µM): 0.175 | increase in dead-cell fraction ([14]; 1 µM): 0.338 | increase in dead-cell fraction ([15]; 0.0001 µM): -0.0092 | increase in dead-cell fraction ([15]; 0.0003162 µM): 0.0042 | increase in dead-cell fraction ([15]; 0.001 µM): 0.0058 | increase in dead-cell fraction ([15]; 0.003162 µM): -0.0046 | increase in dead-cell fraction ([15]; 0.01 µM): -0.0004 | increase in dead-cell fraction ([15]; 0.03162 µM): 0.0505 | increase in dead-cell fraction ([15]; 0.1 µM): 0.237 | increase in dead-cell fraction ([15]; 0.3162 µM): 0.33 | increase in dead-cell fraction ([15]; 1 µM): 0.491 | increase in dead-cell fraction ([16]; 0.0001 µM): -0.0025 | increase in dead-cell fraction ([16]; 0.0003162 µM): -0.0004 | increase in dead-cell fraction ([16]; 0.001 µM): 0.0053 | increase in dead-cell fraction ([16]; 0.003162 µM): -0.001 | increase in dead-cell fraction ([16]; 0.01 µM): -0.0038 | increase in dead-cell fraction ([16]; 0.03162 µM): -0.0082 | increase in dead-cell fraction ([16]; 0.1 µM): 0.0051 | increase in dead-cell fraction ([16]; 0.3162 µM): 0.0663 | increase in dead-cell fraction ([16]; 1 µM): 0.417

Reference: the supplement of paper PMC9663587
